Test results as given in publication PMC3072374, “Evolution of Vertebrate Transient Receptor Potential Vanilloid 3 Channels: Opposite Temperature Sensitivity between Mammals and Western Clawed Frogs” (PLoS Genetics, 2011).

Key:
[1] = molecular target: T1, western clawed frog TRPV3 (Xenopus tropicalis, UniProt A0A7D9NMJ5); test: two-electrode voltage clamp in Xenopus laevis oocytes, dose-response; assay type: cell-based
T1 construct: full-length native channel, 773 residues, cDNA cloned from toe RNA into pGEMHE; cRNA injected into Xenopus laevis oocytes; homotetramer (known biology)
T1 sequence (A0A7D9NMJ5 1-773): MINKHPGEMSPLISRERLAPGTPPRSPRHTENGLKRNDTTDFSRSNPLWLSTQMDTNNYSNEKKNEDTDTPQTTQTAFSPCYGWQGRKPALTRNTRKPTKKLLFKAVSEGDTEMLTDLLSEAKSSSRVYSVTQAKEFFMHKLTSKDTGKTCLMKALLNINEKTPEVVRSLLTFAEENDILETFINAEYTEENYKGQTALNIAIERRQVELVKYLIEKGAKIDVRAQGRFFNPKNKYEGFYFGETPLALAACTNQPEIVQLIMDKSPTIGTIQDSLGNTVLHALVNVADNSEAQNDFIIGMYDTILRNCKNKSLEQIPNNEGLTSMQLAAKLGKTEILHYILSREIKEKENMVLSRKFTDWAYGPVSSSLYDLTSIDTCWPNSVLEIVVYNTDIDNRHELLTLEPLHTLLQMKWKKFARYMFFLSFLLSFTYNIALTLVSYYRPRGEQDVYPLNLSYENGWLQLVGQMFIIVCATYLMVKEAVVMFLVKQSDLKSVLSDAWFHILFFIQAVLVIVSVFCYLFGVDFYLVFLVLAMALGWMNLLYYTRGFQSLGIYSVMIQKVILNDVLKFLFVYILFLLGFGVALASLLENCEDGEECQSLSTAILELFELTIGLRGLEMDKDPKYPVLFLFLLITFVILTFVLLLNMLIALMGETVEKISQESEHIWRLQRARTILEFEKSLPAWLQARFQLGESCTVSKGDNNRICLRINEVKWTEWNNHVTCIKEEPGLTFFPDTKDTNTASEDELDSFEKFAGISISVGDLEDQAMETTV

mouse TRPV3 = molecular target: T2, mouse TRPV3 (Mus musculus, UniProt Q8K424); test: two-electrode voltage clamp in Xenopus laevis oocytes; assay type: cell-based; conditions: agonist
T2 construct: full-length channel from pcDNA3 subcloned into pOX+; cRNA injected into Xenopus laevis oocytes; homotetramer (known biology)
T2 sequence (Q8K424 1-791): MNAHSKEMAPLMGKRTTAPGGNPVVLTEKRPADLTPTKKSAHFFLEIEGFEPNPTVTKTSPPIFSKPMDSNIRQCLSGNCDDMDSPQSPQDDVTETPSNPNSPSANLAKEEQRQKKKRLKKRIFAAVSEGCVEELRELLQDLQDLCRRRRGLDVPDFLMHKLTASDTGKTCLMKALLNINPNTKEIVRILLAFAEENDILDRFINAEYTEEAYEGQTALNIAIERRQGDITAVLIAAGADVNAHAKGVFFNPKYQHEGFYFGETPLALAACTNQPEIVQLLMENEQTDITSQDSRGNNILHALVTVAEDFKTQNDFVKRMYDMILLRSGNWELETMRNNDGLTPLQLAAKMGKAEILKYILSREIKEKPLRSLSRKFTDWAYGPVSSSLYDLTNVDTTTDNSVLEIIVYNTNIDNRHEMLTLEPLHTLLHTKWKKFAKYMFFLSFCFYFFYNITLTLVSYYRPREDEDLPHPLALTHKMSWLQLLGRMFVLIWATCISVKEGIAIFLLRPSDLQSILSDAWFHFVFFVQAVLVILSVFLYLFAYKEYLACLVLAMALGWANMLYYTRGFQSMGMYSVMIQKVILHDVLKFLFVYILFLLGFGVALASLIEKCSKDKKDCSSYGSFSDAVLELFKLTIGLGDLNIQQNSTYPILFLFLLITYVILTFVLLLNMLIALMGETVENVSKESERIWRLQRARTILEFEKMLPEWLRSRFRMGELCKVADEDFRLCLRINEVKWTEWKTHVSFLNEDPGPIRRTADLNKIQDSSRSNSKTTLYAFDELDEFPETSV

With NCCOB(c1ccccc1)c1ccccc1 [2-APB] as the compound, how does the EC50 [1] read?
Its EC50 is 540 ± 240 µM.

How did the activation (mouse TRPV3; 8 mM camphor) turn out when CC12CCC(CC1=O)C2(C)C (stereo not drawn) [camphor] was run?
The activation was “well known activators of mammalian TRPV3 (Figure 5F and 5G, Right)”.

With CC12CCC(CC1)C(C)(C)O2 [eucalyptol] as the compound, how does the activation (mouse TRPV3; 10 mM eucalyptol) read?
Its activation is “well known activators of mammalian TRPV3 (Figure 5F and 5G, Right)”.
